This is an account of results in article PMC10489644, “In Vitro Evaluation of the Potential for Drug Interactions by Salidroside” (Nutrients, 2023).

pIC50: −log10 of the molar value. Read-outs that look alike come from different tables or passages of the source.

The test system of series [1] is CYP3A4/5. The series is described as follows: CYP direct inhibition in human liver microsomes. The conditions noted are these: pooled human liver microsomes.
The subject of series [2] is CYP1A2. The series is described as follows: in vitro. How it is done:
(§1) The sandwich medium was removed, and the hepatocytes were treated with incubation solutions containing salidroside (1, 5, 10, and 30 µM), vehicle (0.1% DMSO), or positive inducers in triplicate for 24 h after the cultures were established. The incubation solution was aspirated and replaced with incubation solution containing the same concentrations of salidroside, vehicle, or positive inducers for an additional 24 h. The total treatment period was 48 h. After the treatment period of 48 h, the incubation solution was aspirated. Hepatocytes were washed twice with pre-warmed HBSS containing 10 mM HEPES (HBSS I) and then the remaining solution was aspirated. Hepatocytes were washed once with pre-warmed HBSS I and incubated with 140 μL of RLT (lysis buffer from RNeasy 96 Kit) supplemented with 1% β-mercaptoethanol. Plates were then stored at −70 °C in a freezer until RNA analysis. Before RNA extraction, the frozen plate was thawed, and cell lysates were transferred to 96-well plates. RNA isolation was performed using a QIAcube RNA extraction system. Reverse transcription was performed to obtain cDNA. Quantification of the selective genes by real-time quantitative polymerase chain reaction (qPCR) was performed with TaqMan universal PCR Master Mix on the Bio-rad CFX384 TouchTM Real-Time PCR System. The relative change in the mRNA level of the selected target genes induced by each test compound was expressed in relation to the vehicle control sample, and fold changes in gene expression were determined by the ΔΔCt method.
(§2) Enzyme activity (%) = PAR with compound/PAR vehicle × 100.

Series [3] concerns CYP1A2. Briefly: in vitro. The conditions noted are these: CYP1A2 mRNA, 50 μM, 48 h; for fold induction at 48 h, 50 µM: human, cryopreserved human hepatocytes (sandwich culture), Mean Fold Induction. How it is done: as §1, with “The” for “The sandwich medium was removed, and the hepatocytes were treated with incubation solutions containing salidroside (1, 5, 10, and 30 µM), vehicle (0.1% DMSO), or positive inducers in triplicate for 24 h after the cultures were established. The”

For series [4], the system named is CYP2B6. The series is described as follows: CYP induction by enzyme activity in cryopreserved human hepatocytes (Lot# SNP). How it is done: as §1, §2
In series [5] the test system is CYP2B6. Briefly: in vitro. The conditions noted are these: CYP2B6 mRNA, 1000 µM, 48 h; for fold induction at 48 h, 1000 µM: human, Mean Fold Induction. How it is done: as §1
The target in series [6] is T1, OATP1B3 (Homo sapiens, UniProt Q9NPD5).
T1 sequence (Q9NPD5 1-702): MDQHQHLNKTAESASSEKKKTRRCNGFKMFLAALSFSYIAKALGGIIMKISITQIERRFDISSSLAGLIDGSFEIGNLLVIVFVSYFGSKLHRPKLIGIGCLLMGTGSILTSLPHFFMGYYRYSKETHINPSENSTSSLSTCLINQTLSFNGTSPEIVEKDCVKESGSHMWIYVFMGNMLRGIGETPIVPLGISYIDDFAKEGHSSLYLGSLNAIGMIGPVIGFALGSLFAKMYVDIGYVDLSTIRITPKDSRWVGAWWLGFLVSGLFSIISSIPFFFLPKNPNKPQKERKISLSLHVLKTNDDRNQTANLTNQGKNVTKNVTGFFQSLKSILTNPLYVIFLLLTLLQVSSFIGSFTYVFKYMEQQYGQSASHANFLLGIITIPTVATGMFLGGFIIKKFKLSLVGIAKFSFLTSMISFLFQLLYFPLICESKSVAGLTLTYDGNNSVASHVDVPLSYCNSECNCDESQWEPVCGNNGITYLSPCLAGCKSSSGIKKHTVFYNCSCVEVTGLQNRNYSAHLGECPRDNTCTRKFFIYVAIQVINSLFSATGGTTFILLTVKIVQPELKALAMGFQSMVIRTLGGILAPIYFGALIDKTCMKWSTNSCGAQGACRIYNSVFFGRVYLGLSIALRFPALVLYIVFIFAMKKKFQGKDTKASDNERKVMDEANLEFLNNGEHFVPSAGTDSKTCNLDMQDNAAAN
The series is described as follows: in vitro. Conditions: human. How it is done:
HEK293-OATP1B1 and OATP1B3 cells were diluted to 1 × 10^6 cells/mL with DMEM supplemented with 1% non-essential amino acid (NEAA), 10% fetal bovine serum (FBS), 1% PS solution (100 U/mL penicillin-G and 100 μg/mL streptomycin), and seeded on a 96-well BioCoat™ poly-d-lysine plate at a density of 1 × 10^6 cells/mL. […] Once the cells were anchored on the plate, the cell culture was replaced with DMEM containing 10% FBS and 1% PS solution (100 U/mL penicillin-G and 100 μg/mL streptomycin solution) and cultured one day for the uptake and inhibition studies. The cell culture medium was removed from the 96-well plate, then rinsed twice with 0.1 mL/well of pre-warmed transport buffer. The transporter cells containing pre-incubation solution were pre-incubated at 37 °C for 30 min. Then the pre-incubation solution was removed and replaced with 0.1 mL/well of dosing solution containing a substrate, respectively (blank transporter buffer containing a substrate, transport buffer containing a substrate and PC, and transport buffer containing a substrate and salidroside). Then, the transporter cells were incubated at 37 °C for 2 min. After incubation, all solutions in the cells were discarded and rinsed with 0.10 mL/well of ice-cold transport buffer (4 °C) three times. […] All samples were shaken and centrifuged at 4000 rpm at 4 °C for 15 min and the supernatant was removed for future analysis by LC-MS/MS.
as §2

Series [7] has as its target T2, recombinant human MAO-A (Homo sapiens, UniProt P21397).
T2 sequence (P21397 1-527): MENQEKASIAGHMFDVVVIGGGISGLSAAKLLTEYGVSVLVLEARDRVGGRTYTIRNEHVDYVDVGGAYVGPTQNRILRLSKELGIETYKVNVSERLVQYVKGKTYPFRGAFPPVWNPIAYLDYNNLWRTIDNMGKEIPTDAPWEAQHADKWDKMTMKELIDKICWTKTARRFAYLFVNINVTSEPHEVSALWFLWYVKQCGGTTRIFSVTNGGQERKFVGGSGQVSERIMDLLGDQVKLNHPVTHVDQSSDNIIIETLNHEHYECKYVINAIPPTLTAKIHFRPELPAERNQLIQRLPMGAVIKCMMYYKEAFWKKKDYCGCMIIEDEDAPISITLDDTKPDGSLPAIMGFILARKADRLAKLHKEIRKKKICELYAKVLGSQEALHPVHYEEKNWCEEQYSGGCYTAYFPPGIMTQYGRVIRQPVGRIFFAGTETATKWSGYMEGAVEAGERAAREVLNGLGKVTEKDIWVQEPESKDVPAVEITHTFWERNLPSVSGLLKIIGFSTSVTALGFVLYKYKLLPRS
The series is described as follows: MAO inhibition, kynuramine oxidation to 4-hydroxyquinoline. Format: biochemical. Conditions: substrate kynuramine (20 µM); mean of N = 2; read-out: IC50 MAO-A. How it is done:
(§3) A total of 99 µL of substrate working solution was added into 1.1 mL incubation tubes and then 1 µL of the test compound/control working solution or DMSO (vehicle control) was added, mixed well, and pre-incubated at 37 °C for 5 min. MAO-A (0.005 mg/mL) and MAO-B (0.02 mg/mL) were pre-incubated in the working solution at 37 °C for 5 min. A total of 100 µL of pre-incubated MAO-A or MAO-B working solution was added to incubation tubes to start the reaction, mixed well, and incubated at 37 °C for 15 min. […] All samples were centrifuged at 4000 rpm at 4 °C for 15 min, then 100 µL supernatant with 100 µL of water was transferred for LC-MS/MS analysis.
as §2
(§4) The oxidation of kynuramine to 4-hydroxyquinoline generated was the in vitro marker reaction of MAO-A and MAO-B enzymes.

Series [8] has as its target T3, recombinant human MAO-B (Homo sapiens, UniProt P27338).
T3 construct: purchased Corning
T3 sequence (P27338 1-520): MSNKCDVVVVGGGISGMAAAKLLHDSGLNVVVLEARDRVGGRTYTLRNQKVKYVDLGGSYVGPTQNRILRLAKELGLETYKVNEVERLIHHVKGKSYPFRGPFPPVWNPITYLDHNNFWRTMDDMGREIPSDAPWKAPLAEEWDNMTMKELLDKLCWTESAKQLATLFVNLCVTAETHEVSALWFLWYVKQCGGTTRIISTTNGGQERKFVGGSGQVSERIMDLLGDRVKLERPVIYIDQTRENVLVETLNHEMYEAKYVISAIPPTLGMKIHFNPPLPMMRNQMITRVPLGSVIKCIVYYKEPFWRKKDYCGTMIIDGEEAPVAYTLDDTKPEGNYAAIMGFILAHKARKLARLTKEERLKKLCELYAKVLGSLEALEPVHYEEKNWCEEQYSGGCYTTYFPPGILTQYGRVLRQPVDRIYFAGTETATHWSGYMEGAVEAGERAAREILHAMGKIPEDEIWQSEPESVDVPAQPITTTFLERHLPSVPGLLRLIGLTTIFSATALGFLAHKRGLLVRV
The series is described as above. Format: biochemical. Conditions: substrate kynuramine (20 µM); mean of N = 2. How it is done:
as §3, §2, §4

Series [9] relates to MAO-B. On the set-up: method as in PMID 19168123. Conditions: isolated compound at 10 µM; cited from earlier work.

Consider `CC(=O)N1CCN(c2ccc(OCC3COC(Cn4ccnc4)(c4ccc(Cl)cc4Cl)O3)cc2)CC1` (stereo not shown) [Ketoconazole, ketoconazole], for which the figures for the IC50 at 10 min in series [1] (probe midazolam) and in series [1] (probe testosterone) were 27 nM and 18.3 nM, respectively.
Regarding `COc1ccc2[nH]c([S+]([O-])Cc3ncc(C)c(OC)c3C)nc2c1` (stereo not shown) [OME, omeprazole, reference compound], the fold induction (commonly the ratio of treated to control signal) at 48 h, 50 µM is 3.55 in series [2], 10 in [3] (Lot# 1911442), 24 in series [3] (Lot# MWB) and 19 in series [3] (Lot# RFM). For the same molecule, the “% of Positive Control” value in series [2] (CYP1A2 activity, Lot# SNP, 50 µM) is on record as 100%. The “% Positive Control” value in series [3] (Lot# 1911442), in series [3] (Lot# MWB) and in series [3] (Lot# RFM) was 100% throughout.
On to `CCC1(c2ccccc2)C(=O)NC(=O)NC1=O` [PB, phenobarbital, reference compound], for which, in series [4] (CYP2B6 activity, Lot# SNP, 1000 µM), the “% of Positive Control” value is 100%. The fold induction at 48 h, 1000 µM in [4] (human) was 5.69; in series [5] (Lot# 1911442) it was 13.6; in series [5] (Lot# MWB), 14.7; in [5] (Lot# RFM) it was 8.81. Besides, the “% Positive Control” value in series [5] (Lot# 1911442), in series [5] (Lot# MWB) and in series [5] (Lot# RFM) was 100% throughout.
As for `CO[C@H]1/C=C/O[C@@]2(C)Oc3c(C)c(O)c4c(O)c(c(/C=N/N5CCN(C)CC5)c(O)c4c3C2=O)NC(=O)/C(C)=C\C=C\[C@H](C)[C@H](O)[C@@H](C)[C@@H](O)[C@@H](C)[C@H](OC(C)=O)[C@@H]1C` [RIF, rifampicin, reference compound], half-maximal inhibition in [6] (IC50 at 2 min) required 1540 nM.
As for `Cc1oncc1C(=O)Nc1ccc(C(F)(F)F)cc1` [leflunomide, reference compound], the negative logarithm of the IC50 (pIC50) (commonly the negative decadic logarithm of the IC50, by convention in mol/L) in series [7] was 4.86; in series [8], 5.13.
In the case of `CC(C)=CC[C@H](O)/C(C)=C/CO[C@@H]1O[C@H](CO)[C@@H](O)[C@H](O)[C@H]1O` [rosirdin, reference compound], the “inhibition of MAO-B” value in [9] is listed as 83.8%.
